Entries after “also recorded” stand apart in the source; their conditions may differ.
How the values were obtained:
[1] = target: T1, RING1B-BMI1 interaction with nucleosome (Homo sapiens, UniProt Q99496); test: EMSA assay, RING1B-BMI1 interaction with nucleosome; format: binding; conditions: FIG. 2D
T1 sequence (Q99496 1-336): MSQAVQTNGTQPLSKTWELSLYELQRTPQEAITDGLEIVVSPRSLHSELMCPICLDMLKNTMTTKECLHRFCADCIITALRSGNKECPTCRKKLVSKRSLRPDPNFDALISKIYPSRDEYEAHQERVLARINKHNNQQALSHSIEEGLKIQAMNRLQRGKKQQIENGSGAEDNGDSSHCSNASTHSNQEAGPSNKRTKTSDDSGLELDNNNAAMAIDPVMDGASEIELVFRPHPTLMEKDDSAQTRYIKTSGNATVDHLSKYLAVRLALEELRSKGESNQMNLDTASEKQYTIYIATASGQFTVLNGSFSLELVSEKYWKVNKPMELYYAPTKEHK
T1 sequence (P35226 1-326 partner): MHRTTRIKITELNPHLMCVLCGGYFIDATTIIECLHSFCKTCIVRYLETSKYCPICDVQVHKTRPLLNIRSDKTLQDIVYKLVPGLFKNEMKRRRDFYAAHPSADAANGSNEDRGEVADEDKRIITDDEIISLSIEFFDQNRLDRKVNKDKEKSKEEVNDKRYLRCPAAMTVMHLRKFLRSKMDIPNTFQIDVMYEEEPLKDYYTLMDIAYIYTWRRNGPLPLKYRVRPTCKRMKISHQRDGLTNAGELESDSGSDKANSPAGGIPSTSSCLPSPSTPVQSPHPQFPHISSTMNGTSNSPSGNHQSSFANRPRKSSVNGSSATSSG
Source text: (§1) FIG. 2. COMPOUND 1 inhibits PRC1 in vitro. […] C.

BRCA1-BARD1 = BRCA1-BARD1 (Homo sapiens, UniProt P38398+Q99728); test: BRCA1-BARD1 E3 ligase selectivity; format: biochemical; conditions: FIG. 2
Protocol: as §1
(§2) Experiments were conducted during development of embodiments herein to develop small molecule inhibitors of PRC1 by targeting the Ring1B-BMI1 E3 ligase. These compounds bind directly to Ring1B-Bmi1 with low-micromolar affinity and inhibit PRC1 in vitro and in cells. […] Experiments were conducted during development of embodiments herein to test COMPOUND 1 in leukemia stem cell models represented by TEX cells (Ref. 22; herein incorporated by reference in its entirety) and M9-ENL1 cells (Ref. 23; herein incorporated by reference in its entirety). […] In some embodiments, COMPOUND 1 and COMPOUND 1 analogs are find use as agents in targeting leukemia and other cancer stem cells.

RING1B-BMI1 [2] = target: T2, RING1B-BMI1 (Homo sapiens, UniProt Q99496); test: KD classes of Table A (direct binding to Ring1B-Bmi1); conditions: class given in Table A
T2 sequence (Q99496 1-336): T1 sequence (Q99496 1-336)
T2 sequence (P35226 1-326 partner): T1 sequence (P35226 1-326 partner)

RING1B-PCGF1 = target: T3, RING1B-PCGF1 (Homo sapiens, UniProt Q99496); test: RING1B-PCGF1 E3 ligase activity in vitro; format: biochemical; conditions: FIG. 2B
T3 sequence (Q99496 1-336): T1 sequence (Q99496 1-336)
T3 sequence (Q9BSM1 1-259 partner): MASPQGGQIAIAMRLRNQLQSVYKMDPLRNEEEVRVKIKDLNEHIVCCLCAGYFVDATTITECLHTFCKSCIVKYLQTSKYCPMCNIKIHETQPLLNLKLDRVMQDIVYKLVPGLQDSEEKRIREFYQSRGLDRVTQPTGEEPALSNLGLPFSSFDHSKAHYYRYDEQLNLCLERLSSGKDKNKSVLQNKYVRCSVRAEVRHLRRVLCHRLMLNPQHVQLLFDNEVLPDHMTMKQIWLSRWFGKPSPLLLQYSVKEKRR
Source text: as §1

RING1B-BMI1 [3] = target: T2, RING1B-BMI1; test: RING1B-BMI1 E3 ligase (H2Aub) activity in vitro; format: biochemical
Protocol: as §1, §2

M9-ENL1 cells [4] = test: Colony formation of M9-ENL1 cells; format: cell-based; conditions: FIG. 5
Protocol: as §2

H2Aub in TEX cells = test: H2Aub, RNA-seq and ChIP-seq in TEX cells; format: cell-based; conditions: FIG. 4
Protocol: (§3) FIGS. 4A-F. COMPOUND 1 inhibits PRC1 in TEX cells. FIG. 4A. Inhibition of H2Aub in TEX cells. FIG. 4B. Differentiation of TEX cells upon treatment with COMPOUND 1. […] FIG. 4C. GSEA analysis of TEX cells showing revers of stem cell signature. FIG. 4D. […] FIG. 4E. Gene expression changes upon treatment with COMPOUND 1. FIG. 4F.
as §2

primary AML samples = test: Primary AML samples: H2Aub, colony formation, CD34; format: cell-based; conditions: FIG. 6
[5] = system: PRC1 complex in leukemia K562 cells; test: H2Aub level / PRC1 activity in K562 cells; format: cell-based; conditions: FIG. 3
Protocol: FIG. 3. COMPOUND 1 inhibits PRC1 in K562 cells. Knockdown of BMI1 and RING1B in K562 cells results in decrease in H2Aub.
as §2

TRIM37 = target: T4, TRIM37 (Homo sapiens, UniProt O94972); test: TRIM37 E3 ligase selectivity; format: biochemical; conditions: FIG. 2
T4 sequence (O94972 1-964): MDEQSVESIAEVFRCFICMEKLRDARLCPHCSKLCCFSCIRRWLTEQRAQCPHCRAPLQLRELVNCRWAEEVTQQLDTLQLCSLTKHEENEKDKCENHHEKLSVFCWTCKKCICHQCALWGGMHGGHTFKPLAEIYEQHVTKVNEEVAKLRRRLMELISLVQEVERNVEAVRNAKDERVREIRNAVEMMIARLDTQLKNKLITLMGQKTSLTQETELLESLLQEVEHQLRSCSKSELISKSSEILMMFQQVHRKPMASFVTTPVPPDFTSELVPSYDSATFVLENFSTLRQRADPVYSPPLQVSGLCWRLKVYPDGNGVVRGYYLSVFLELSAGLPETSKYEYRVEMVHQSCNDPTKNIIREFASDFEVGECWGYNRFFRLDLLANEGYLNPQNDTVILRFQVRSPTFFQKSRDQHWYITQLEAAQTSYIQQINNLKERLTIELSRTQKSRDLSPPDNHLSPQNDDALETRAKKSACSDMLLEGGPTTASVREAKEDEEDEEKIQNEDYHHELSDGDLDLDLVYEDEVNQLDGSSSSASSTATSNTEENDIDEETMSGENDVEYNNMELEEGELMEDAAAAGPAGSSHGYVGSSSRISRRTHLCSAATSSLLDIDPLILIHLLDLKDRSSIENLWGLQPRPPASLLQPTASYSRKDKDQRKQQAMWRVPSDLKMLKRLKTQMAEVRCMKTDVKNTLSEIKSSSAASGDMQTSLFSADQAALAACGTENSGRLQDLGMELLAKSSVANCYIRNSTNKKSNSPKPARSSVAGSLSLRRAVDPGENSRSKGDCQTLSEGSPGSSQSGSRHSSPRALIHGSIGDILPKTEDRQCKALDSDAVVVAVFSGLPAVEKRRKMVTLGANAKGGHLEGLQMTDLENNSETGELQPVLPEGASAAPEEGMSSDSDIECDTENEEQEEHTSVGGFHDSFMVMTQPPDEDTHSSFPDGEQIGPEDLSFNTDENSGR
Protocol: as §1, §2

M9-ENL1 cells [6] = test: Transplantation of treated M9-ENL1 cells into mice; format: in vivo; conditions: then transplanted into mice, FIG. 5
Protocol: as §2

TEX cells = test: Differentiation and CD34 marker of TEX cells; format: cell-based; conditions: FIG. 4
Protocol: as §3, §2

RING1B-BMI1 [7] = target: T2, RING1B-BMI1; test: ITC binding of COMPOUND 1 to RING1B-BMI1
Protocol: FIG. 1. […] A. structure of COMPOUND 1. B. ITC experiments showing the binding of COMPOUND 1 to RING1B-BMI1. C. Assigned NMR spectrum of RING1B-BMI1 with DMSO and COMPOUND 1 in 1-2 molar ratio.
as §2

BRCA1-BARD1, sequence (P38398 whole entry): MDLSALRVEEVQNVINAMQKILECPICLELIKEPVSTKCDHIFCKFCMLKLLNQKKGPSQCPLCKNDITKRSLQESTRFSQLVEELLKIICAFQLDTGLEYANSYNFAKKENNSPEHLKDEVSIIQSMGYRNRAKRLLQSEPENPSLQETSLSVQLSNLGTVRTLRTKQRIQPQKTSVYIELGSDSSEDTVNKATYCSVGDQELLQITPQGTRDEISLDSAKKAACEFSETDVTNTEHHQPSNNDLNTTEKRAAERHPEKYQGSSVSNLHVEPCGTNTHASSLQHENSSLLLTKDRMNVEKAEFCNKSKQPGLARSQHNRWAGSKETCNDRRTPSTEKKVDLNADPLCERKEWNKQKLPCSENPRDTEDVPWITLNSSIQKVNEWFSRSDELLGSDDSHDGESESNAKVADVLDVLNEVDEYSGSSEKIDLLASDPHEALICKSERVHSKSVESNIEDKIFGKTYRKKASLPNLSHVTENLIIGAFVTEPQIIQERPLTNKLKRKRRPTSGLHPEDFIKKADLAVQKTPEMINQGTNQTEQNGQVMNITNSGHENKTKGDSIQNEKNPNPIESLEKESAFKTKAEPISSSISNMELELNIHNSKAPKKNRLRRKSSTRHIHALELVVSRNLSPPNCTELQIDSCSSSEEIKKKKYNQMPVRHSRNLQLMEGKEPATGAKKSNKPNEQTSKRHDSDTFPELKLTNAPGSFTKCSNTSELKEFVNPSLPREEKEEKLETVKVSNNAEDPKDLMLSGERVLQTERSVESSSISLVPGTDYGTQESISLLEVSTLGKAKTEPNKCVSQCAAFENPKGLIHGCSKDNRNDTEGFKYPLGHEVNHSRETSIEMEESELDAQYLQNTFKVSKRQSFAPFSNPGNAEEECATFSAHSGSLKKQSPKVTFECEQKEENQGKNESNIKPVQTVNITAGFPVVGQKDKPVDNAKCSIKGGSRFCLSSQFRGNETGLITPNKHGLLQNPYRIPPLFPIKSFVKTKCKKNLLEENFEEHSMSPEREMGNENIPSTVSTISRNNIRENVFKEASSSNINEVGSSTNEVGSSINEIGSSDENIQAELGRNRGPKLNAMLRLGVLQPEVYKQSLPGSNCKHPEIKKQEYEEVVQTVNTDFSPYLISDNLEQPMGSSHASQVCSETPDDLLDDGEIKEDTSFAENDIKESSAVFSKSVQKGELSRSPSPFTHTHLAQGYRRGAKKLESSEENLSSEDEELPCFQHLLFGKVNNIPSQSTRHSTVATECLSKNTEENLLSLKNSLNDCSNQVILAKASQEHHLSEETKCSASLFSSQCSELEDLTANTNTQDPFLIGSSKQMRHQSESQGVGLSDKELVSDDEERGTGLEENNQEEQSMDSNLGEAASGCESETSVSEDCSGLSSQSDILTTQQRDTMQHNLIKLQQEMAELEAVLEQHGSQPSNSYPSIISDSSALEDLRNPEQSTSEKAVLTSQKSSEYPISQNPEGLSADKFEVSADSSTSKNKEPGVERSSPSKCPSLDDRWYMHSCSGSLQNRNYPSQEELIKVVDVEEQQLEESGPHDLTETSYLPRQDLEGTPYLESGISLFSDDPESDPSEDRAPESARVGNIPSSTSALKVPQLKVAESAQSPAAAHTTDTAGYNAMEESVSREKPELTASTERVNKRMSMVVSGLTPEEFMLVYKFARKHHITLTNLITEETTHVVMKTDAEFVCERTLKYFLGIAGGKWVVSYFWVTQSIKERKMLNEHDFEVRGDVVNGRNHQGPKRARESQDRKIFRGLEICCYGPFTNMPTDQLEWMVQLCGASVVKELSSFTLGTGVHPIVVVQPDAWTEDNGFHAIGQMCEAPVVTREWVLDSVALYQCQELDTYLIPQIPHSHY
BRCA1-BARD1, sequence (Q99728 whole entry): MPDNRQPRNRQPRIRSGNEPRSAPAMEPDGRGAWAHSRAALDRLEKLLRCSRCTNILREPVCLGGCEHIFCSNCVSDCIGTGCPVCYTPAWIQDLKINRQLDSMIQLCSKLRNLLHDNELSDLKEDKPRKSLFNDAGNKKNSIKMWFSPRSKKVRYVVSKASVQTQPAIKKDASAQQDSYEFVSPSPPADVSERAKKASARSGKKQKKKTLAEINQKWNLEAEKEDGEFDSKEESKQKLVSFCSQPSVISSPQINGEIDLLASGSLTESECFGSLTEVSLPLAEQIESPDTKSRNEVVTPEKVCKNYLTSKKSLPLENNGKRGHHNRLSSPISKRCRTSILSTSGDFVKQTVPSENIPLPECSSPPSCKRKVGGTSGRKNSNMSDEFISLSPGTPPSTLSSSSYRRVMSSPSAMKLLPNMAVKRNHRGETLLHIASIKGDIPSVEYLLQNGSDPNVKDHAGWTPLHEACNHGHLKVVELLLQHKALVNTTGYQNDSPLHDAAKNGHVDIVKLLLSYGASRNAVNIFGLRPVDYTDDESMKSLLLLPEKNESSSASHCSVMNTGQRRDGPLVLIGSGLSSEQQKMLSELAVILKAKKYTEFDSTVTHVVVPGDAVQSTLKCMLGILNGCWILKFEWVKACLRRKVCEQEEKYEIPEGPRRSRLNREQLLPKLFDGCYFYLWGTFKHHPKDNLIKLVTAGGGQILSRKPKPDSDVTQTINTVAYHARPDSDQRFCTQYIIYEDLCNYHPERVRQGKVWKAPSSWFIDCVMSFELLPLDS

SMILES: CC(C)c1c(-c2cccc3[nH]ccc23)[nH]c(C(=O)O)c1-c1c(Cl)ccc2[nH]ccc12 [COMPOUND 1, 3-(5-Chloro-1H-indol-4-yl)-5-(1H-indol-4-yl)-4-isopropyl-1H-pyrrole-2-carboxylic acid]
- RING1B-BMI1 interaction with nucleosome [1]: inhibits RINIG1B-BMI1 interaction with nucleosome
- inhibition of BRCA1-BARD1 E3 ligase (BRCA1-BARD1): does not inhibit
- Kd (RING1B-BMI1 [2]): < 20 µM
- RING1B-PCGF1 activity (RING1B-PCGF1): inhibits RING1B-PCGF1 activity
- IC50 (RING1B-BMI1 [3]; FIG. 2): ~2 µM
- RING1B-BMI1 H2Aub activity (RING1B-BMI1 [3]; in vitro, FIG. 2A): inhibits RING1B-BMI1 H2Aub activity
- colony formation of M9-ENL1 cells (M9-ENL1 cells [4]): effective in blocking colony formation
- H2Aub in TEX cells (H2Aub in TEX cells): inhibits H2Aub
- global H2Aub (ChIP-seq) (H2Aub in TEX cells): global decrease in H2Aub
- leukemia stem cell signature (RNA-seq) (H2Aub in TEX cells): reversing leukemia stem cell signature
- H2Aub in primary AML samples (primary AML samples): decreases H2Aub
- colony formation, primary AML samples (primary AML samples): inhibits colony formation
- stem cell marker CD34, primary AML samples (primary AML samples): decrease stem sell marker CD34
- PRC1 activity / H2Aub level in K562 cells [5]: blocks the activity of PRC1 complex; also recorded: decreases H2Aub level
- inhibition of TRIM37 E3 ligase (TRIM37): does not inhibit
- engraftment and leukemia development (M9-ENL1 cells [6]): strongly decreases engraftment and leukemia development
- differentiation of TEX cells (TEX cells): induces differentiation
- stem cell marker CD34 (TEX cells): loss of stem cell marker CD34
- binding to RING1B-BMI1 (RING1B-BMI1 [7]; ITC and NMR, FIG. 1): binds to RING1B-BMI1
- Kd (RING1B-BMI1 [7]; binds directly to Ring1B-Bmi1, FIG. 1): 2.6 µM
